Source: US20070077283A1, “METHOD OF ENHANCING TRANSMUCOSAL DELIVERY OF THERAPEUTIC COMPOUNDS” (Nastech Pharmaceutical Company Inc., priority 2005, published 2007)
“And” between values parts separate entries of the source, which are not always exact repeats. Equal entries are not always repeated.

Tests used:
Format in all cases: cell-based
[1] = tested on: human-derived tracheal/bronchial epithelial cells (EpiAirway Tissue Model); assay: Transepithelial electrical resistance (TER) of an epithelial cell monolayer; conditions: for activity at 1000 µM / activity at 500 µM: Homo sapiens, Epithelial cell, 1 h, read-out: Mean % of Original TER Value; for activity at 1000 µM: lower value = greater TER reduction (Table 4); for TER reduction within 15 minutes: 15 minute incubation; for activity at 500 µM: lipid 500 μM (Table 4)
Procedure, shortened: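 EpiAirway human tracheal/bronchial epithelial tissue inserts, fed daily during recovery; resistance read with EVOM voltohmmeter in Endohm-12 chamber in MatTek medium, blank-insert background (about 5-20 ohms) measured. TER normalised to tissue surface area, expressed as Ohms*cm2 and percent of original TER; lower TER taken as enhanced permeation.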

[2] = tested on: human-derived tracheal/bronchial epithelial cells (EpiAirway Tissue Model); assay: TER recovery / TER time course; conditions: for TER Recovery (ohms) 16 Hours / TER Recovery (ohms) 0 Hour: lipid 1000 μM in Buffer I; for TER Recovery (ohms) 16 Hours: 16 hours post-treatment; for TER Recovery (ohms) 0 Hour: zero hour post-treatment
Experimental: TER recovery was calculated as described in the above paragraph.
Reversibility is a critical factor in selecting epithelial cell permeabiling enhancers since the barrier function of the epithelial cells serves as the first line of defense against pathogens and the entrance of toxins into the body. The permeation enhancing lipids C16 PAF; C18 PAF; C16 Enantiomeric PAF; POVPC; C16-04: 1 PC and PGPC were incubated with a monolayer of human-derived tracheal/bronchial epithelial cells (EpiAirway™ Model System) and TER […] The lipid glucosyl sphingosine was also tested. Each permeation enhancing lipid (except PGPC) was applied at a concentration of 1000 μM for 15, 30 and 60 minutes. The permeation enhancing lipid PGPC and the lipid glucosyl sphingosine were applied at a concentration of 500 μM for 1, 3, 5, 30 and 60 minutes. TER measurements were taken immediately after each application to determine how quickly each lipid could reduce TER.
[…] […] PBS served as a negative control and Triton-X100™ served as a positive control.
To asses how quickly the cells recovered after application and removal of the permeation enhancing lipid PGPC and the lipid glucosyl sphingosine, TER measurements were taken at 1, 3, 5, 7, and 9 hours post-treamtnet for each of the prior mentioned timed treatments (i.e., 1, 3, 5, 15, 30 and 60 minutes). TER recovery measures the reversibility of the lipid mediated effect on an epithelia. […] Hyptonic PBS served as a negative control for TER reduction and TER recovery.

[3] = tested on: human-derived tracheal/bronchial epithelial cells (EpiAirway Tissue Model); assay: FITC-Dextran permeation assay across epithelial cell monolayer; conditions: for Mean % FD3 Permeation: FITC-dextran 3000 (Table 4); for permeation of FD3 relative to negative controls: text summary of Table 4
Procedure, shortened: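 Formulations applied apically to EpiAirway tissue inserts, shaken ~100 rpm 1.5 hours at 37 °C, with FITC-dextran (3-500 kDa) added apically. Basolateral fluorescence read at 470 nm in triplicate; result expressed as percent of FITC-dextran crossing apical to basolateral.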

[4] = lipid 1000 μM, percent decrease in TER from time zero
[5] = after 1, 3, 5, 15 and 30 minute treatments, lipids 500 μM, PN159 25 μM
[6] = after 60 minute treatment, lipids 500 μM, PN159 25 μM

CCCCCCCCCCCCCCCCOC[C@@H](COP(=O)([O-])OCC[N+](C)(C)C)OC(C)=O [C16 Enantiomeric PAF, 3-O-Hexadecyl-2-Acetoyl-sn-Glycero-1-Phosphocholine]
activity at 1000 µM ([1]; lipid 1000 μM): 1% | % Original TER ([1]; lipid 1000 μM in Buffer I): 2% | % Original TER ([1]; lipid 1000 μM in Buffer II): 9% | TER reduction within 15 minutes ([1]; lipid 1000 μM): levels equivalent to that of the Triton-X100™ control | TER Recovery (ohms) 16 Hours [2]: 462 ohms | TER Recovery (ohms) 0 Hour [2]: 9 ohms | % FITC-Dextran Permeation FD10 ([3]; lipid 1000 μM): 4% | % FITC-Dextran Permeation FD40 ([3]; lipid 1000 μM): 2% | % FITC-Dextran Permeation FD70 ([3]; lipid 1000 μM): 1% | % FITC-Dextran Permeation FD500 ([3]; lipid 1000 μM): 0% | % FITC-Dextran Permeation FD3 ([3]; lipid 1000 μM (Table 5)): 20% | % FD3 Permeation ([3]; lipid 1000 μM in Buffer I): 46% | % FD3 Permeation ([3]; lipid 1000 μM in Buffer II): 23% | Mean % FD3 Permeation ([3]; lipid 1000 μM): 11% | permeation of FD3 relative to negative controls [3]: enhanced the permeation of FD3 above that of the negative controls

CCCCCCCCCCCCCCCCOC[C@H](COP(=O)([O-])OCC[N+](C)(C)C)OC(C)=O [C16-02:0 PC(C16 PAF), 1-O-Hexadecyl-2-Acetoyl-sn-Glycero-3-Phosphocholine]
activity at 500 µM [1]: 27% | activity at 1000 µM ([1]; lipid 1000 μM): 2% | % Original TER ([1]; lipid 1000 μM in Buffer I): 1% | % Original TER ([1]; lipid 1000 μM in Buffer II): 8% | TER reduction within 15 minutes ([1]; lipid 1000 μM): levels equivalent to that of the Triton-X100™ control | TER Recovery (ohms) 16 Hours [2]: 650 ohms | TER Recovery (ohms) 0 Hour [2]: 9 ohms | Mean % FD3 Permeation ([3]; lipid 500 μM): 5% | % FITC-Dextran Permeation FD10 ([3]; lipid 1000 μM): 6% | % FITC-Dextran Permeation FD40 ([3]; lipid 1000 μM): 2% | % FITC-Dextran Permeation FD70 ([3]; lipid 1000 μM): 2% | % FITC-Dextran Permeation FD500 ([3]; lipid 1000 μM): 0% | % FITC-Dextran Permeation FD3 ([3]; lipid 1000 μM (Table 5)): 22% | % FD3 Permeation ([3]; lipid 1000 μM in Buffer I): 41% | % FD3 Permeation ([3]; lipid 1000 μM in Buffer II): 27% | Mean % FD3 Permeation ([3]; lipid 1000 μM): 14% | permeation of FD3 relative to negative controls [3]: enhanced the permeation of FD3 above that of the negative controls

CCCCCCCCCCCCCCCC(=O)OC[C@H](COP(=O)([O-])OCC[N+](C)(C)C)OC(=O)CCCC=O [POVPC, 1-Palmitoyl-2-(5′-oxo-Valeroyl)-sn-Glycero-3-Phosphocholine]
TER reduction by 60 minutes ([1]; 1000 μM, 60 minutes): levels nearly equivalent to that of the Triton-X100™ control | TER reduced to % below that of the PBS control ([1]; 1000 μM, within 15 minutes): 20% | TER reduced to % of the PBS control ([1]; 1000 μM, within 30 minutes): about 25% | activity at 1000 µM ([1]; lipid 1000 μM): 0% | Mean TER Reduction 1 hr. Post-treatment ([1]; lipid 62.5 μM): 23% | Mean TER Reduction 1 hr. Post-treatment ([1]; lipid 125 μM): 32% | Mean TER Reduction 1 hr. Post-treatment ([1]; lipid 250 μM): 52% | Mean TER Reduction 1 hr. Post-treatment ([1]; lipid 500 μM): 87% | % Original TER ([1]; lipid 1000 μM in Buffer I): 25% | % Original TER ([1]; lipid 1000 μM in Buffer II): 17% | Mean TER Reduction 1 hr. Post-treatment [1, 4]: 93% | TER Recovery (ohms) 16 Hours [2]: 508 ohms | TER Recovery (ohms) 0 Hour [2]: 71 ohms | permeation of FITC-dextran 3000 (FD3) over time ([3]; 1000 μM, 15, 30, 60 minutes): time-dependent permeation | % FITC-Dextran Permeation FD3 ([3]; lipid 500 μM (Table 5)): 2% | % FITC-Dextran Permeation FD10 ([3]; lipid 1000 μM): 3% | % FITC-Dextran Permeation FD40 ([3]; lipid 1000 μM): 1% | % FITC-Dextran Permeation FD70 ([3]; lipid 1000 μM): 0.3% | % FITC-Dextran Permeation FD500 ([3]; lipid 1000 μM): 0% | % FITC-Dextran Permeation FD3 ([3]; lipid 1000 μM (Table 5)): 10% | % FD3 Permeation ([3]; lipid 1000 μM in Buffer I): 53% | % FD3 Permeation ([3]; lipid 1000 μM in Buffer II): 9% | Mean % FD3 Permeation ([3]; lipid 1000 μM): 10% | permeation of FD3 relative to negative controls [3]: enhanced the permeation of FD3 above that of the negative controls

CC(C)C[C@H](NC(=O)[C@H](C)NC(=O)[C@H](CCCCN)NC(=O)[C@H](CC(C)C)NC(=O)[C@H](C)NC(=O)[C@H](CC(C)C)NC(=O)[C@H](CCCCN)NC(=O)[C@H](CC(C)C)NC(=O)[C@H](C)NC(=O)[C@H](CC(C)C)NC(=O)[C@@H](N)CCCCN)C(=O)N[C@@H](CCCCN)C(=O)N[C@@H](C)C(=O)N[C@@H](C)C(=O)N[C@@H](CC(C)C)C(=O)N[C@@H](CCCCN)C(=O)N[C@@H](CC(C)C)C(=O)N[C@@H](C)C(N)=O [PN159, reference compound]
% Original TER ([1]; PN159 25 μM / PYY 13.67 mg/mL (High)): 10% | % of the original TER value ([1]; controls of the further test of lipids at 250 μM to 1000 μM (b219-b220)): 8% | Mean TER Reduction 1 hr. Post-treatment ([1]; positive control PN159 25 μM): 85% and 87% | time to full TER recovery (PBS control levels) [2, 5]: 2 h | time to full TER recovery (PBS control levels) [2, 6]: 9 h | time to TER reduction ([2]; lipids 500 μM, PN159 25 μM): 10 min | % FITC-Dextran Permeation FD10 ([3]; PN159 25 μM): 4% | % FITC-Dextran Permeation FD40 ([3]; PN159 25 μM): 2% | % FITC-Dextran Permeation FD3 ([3]; PN159 25 μM (Table 5)): 7%

C=CCC(=O)O[C@H](COCCCCCCCCCCCCCCCC)COP(=O)([O-])OCC[N+](C)(C)C [C16-04:1 PC]
activity at 500 µM [1]: 11% | activity at 1000 µM ([1]; lipid 1000 μM): -2% | % Original TER ([1]; lipid 1000 μM in Buffer I): 2% | % Original TER ([1]; lipid 1000 μM in Buffer II): 23% | TER Recovery (ohms) 16 Hours [2]: 520 ohms | TER Recovery (ohms) 0 Hour [2]: 10 ohms | Mean % FD3 Permeation ([3]; lipid 500 μM): 6% | % FITC-Dextran Permeation FD10 ([3]; lipid 1000 μM): 8% | % FITC-Dextran Permeation FD40 ([3]; lipid 1000 μM): 3% | % FITC-Dextran Permeation FD70 ([3]; lipid 1000 μM): 0% | % FITC-Dextran Permeation FD500 ([3]; lipid 1000 μM): 0% | % FITC-Dextran Permeation FD3 ([3]; lipid 1000 μM (Table 5)): 25% | % FD3 Permeation ([3]; lipid 1000 μM in Buffer I): 44% | % FD3 Permeation ([3]; lipid 1000 μM in Buffer II): 8% | Mean % FD3 Permeation ([3]; lipid 1000 μM): 12% | permeation of FD3 relative to negative controls [3]: enhanced the permeation of FD3 above that of the negative controls

CCCCCCCCCCCCCCCC(=O)OC[C@H](COP(=O)([O-])OCC[N+](C)(C)C)OC(=O)CCCC(=O)O [PGPC, 1-Palmitoyl-2-Glutaroyl-sn-Glycero-3-Phosphocholine]
Mean TER Reduction 1 hr. Post-treatment ([1]; lipid 62.5 μM): 21% | Mean TER Reduction 1 hr. Post-treatment ([1]; lipid 125 μM): 28% | Mean TER Reduction 1 hr. Post-treatment ([1]; lipid 250 μM): 48% | Mean TER Reduction 1 hr. Post-treatment ([1]; lipid 500 μM): 80% | Mean TER Reduction 1 hr. Post-treatment [1, 4]: 92% | time to full TER recovery (PBS control levels) [2, 5]: fully recovered within one hour | time to full TER recovery (PBS control levels) [2, 6]: did not reach PBS TER control levels until three hours post-treatment | % FITC-Dextran Permeation FD3 ([3]; lipid 500 μM (Table 5)): 10%

CCCCCCCCCCCCCCCCCCOC[C@H](COP(=O)([O-])OCC[N+](C)(C)C)OC(C)=O [C18-02:0 PC(C18 PAF), 1-O-Octadecyl-2-Acetoyl-sn-Glycero-3-Phosphocholine]
activity at 500 µM [1]: 44% | activity at 1000 µM ([1]; lipid 1000 μM): 1% | % Original TER ([1]; lipid 1000 μM in Buffer I): 1% | % Original TER ([1]; lipid 1000 μM in Buffer II): 7% | TER reduction within 15 minutes ([1]; lipid 1000 μM): levels equivalent to that of the Triton-X100™ control | TER Recovery (ohms) 16 Hours [2]: 497 ohms | TER Recovery (ohms) 0 Hour [2]: 6 ohms | Mean % FD3 Permeation ([3]; lipid 500 μM): 2% | % FITC-Dextran Permeation FD10 ([3]; lipid 1000 μM): 8% | % FITC-Dextran Permeation FD40 ([3]; lipid 1000 μM): 3% | % FITC-Dextran Permeation FD70 ([3]; lipid 1000 μM): 2% | % FITC-Dextran Permeation FD500 ([3]; lipid 1000 μM): 0% | % FITC-Dextran Permeation FD3 ([3]; lipid 1000 μM (Table 5)): 24% | % FD3 Permeation ([3]; lipid 1000 μM in Buffer I): 42% | % FD3 Permeation ([3]; lipid 1000 μM in Buffer II): 27% | Mean % FD3 Permeation ([3]; lipid 1000 μM): 8% | permeation of FD3 relative to negative controls [3]: enhanced the permeation of FD3 above that of the negative controls
